Data on 10 molecules can be found in ChEMBL document CHEMBL1201862, “PubChem BioAssay data set” (2004).

Holding throughout (assay): inhibition of tumour cell growth, NCI panel, 48 h
Test [1] deals with UO-31.
For test [2], the system named is IGROV-1.
For test [3], the system named is HOP-92.
In test [4] the test system is BT-549.
The test system of test [5] is OVCAR-4.
The subject of test [6] is CCRF-CEM.
Test [7] relates to HCT-15.
Test [8] deals with SNB-75.
The test system of test [9] is T47D.
The test system of test [10] is 786-0.
In test [11] the test system is COLO 205.
The test system of test [12] is MDA-MB-435.
For test [13], the system named is MDA-MB-231.
Test [14] concerns HCT-116.
Test [15] relates to SW-620.
The subject of test [16] is RXF 393.
Test [17] relates to NCI/ADR-RES.
The test system of test [18] is KM12.
For test [19], the system named is NCI-H522.
Test [20] deals with U-251.

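Five concentrations, 48 hours, 96-well plates. Abbreviation: GI50, concentration required for 50% inhibition of growth.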 Calls of active or inactive are those of the source. No stated cut-off is given here; in the data, active = GI50 up to about 1.1 µM and inactive = higher.

Turning to `Cc1[nH]nc(C(=O)N/N=C/c2cccs2)c1/N=N\N(C)C`, the GI50 was 2.49 µM (inactive) in [1]; 11.1 µM (inactive) in [2]; 16.3 µM (inactive) in test [3]; 11.9 µM (inactive) in test [4]; 10.5 µM (inactive) in test [5]; 2.52 µM (inactive) in [6]. In addition, the GI50 is 13.7 µM in test [7]; 2.89 µM (inactive) in test [8]; 9.12 µM (inactive) in test [9]; 13.6 µM (inactive) in test [10]; 11.9 µM (inactive) in [11]; 23.9 µM (inactive) in test [12]. Besides, the GI50 is 23.1 µM (inactive) in test [13]; 11 µM (inactive) in [14]; 15.3 µM (inactive) in [15]; 14.6 µM (inactive) in test [16]; 21.1 µM (inactive) in test [17]; 24.1 µM (inactive) in test [18]. For the same molecule, the GI50 was 11.2 µM (inactive) in test [19] and 10.3 µM (inactive) in test [20].
Take `CCC1=CC2Cc3nc4cc(Cl)ccc4c(N)c3C(C1)C2` (stereo not drawn): the GI50 was 4.92 µM (inactive) in test [1]; 2.72 µM (inactive) in test [2]; 1.91 µM (inactive) in test [3]; 15.5 µM (inactive) in [4]; 3.59 µM (inactive) in test [5]; 3.35 µM (inactive) in test [6]. Further, the GI50 is 7.21 µM in test [7]; 6.35 µM (inactive) in test [8]; 2.52 µM (inactive) in test [9]; 5.04 µM (inactive) in test [10]; 2.07 µM (inactive) in [11]; 2.94 µM (inactive) in [12]. In addition, the GI50 in test [13] is 5.58 µM (inactive); in [14], 2.54 µM (inactive); in test [15], 8.91 µM (inactive); in [16] it was 2.65 µM (inactive); in test [17] it was 8.3 µM (inactive); in test [18] it was 5.78 µM (inactive). The GI50 in test [19] is 7.5 µM (inactive); in test [20] it was 8.59 µM (inactive).
On to `COc1ccc(C(=O)N(C(=S)OCCOc2ccccc2)c2ccccc2)cc1`, for which the GI50 was 0.0457 µM (active) in test [1]; > 100 µM (inactive) in test [2]; 20 µM (inactive) in [3]; 49.9 µM (inactive) in [4]; 24.5 µM (inactive) in [5]; 14.9 µM (inactive) in test [6]. The GI50 is 44.2 µM in test [7]; 1.63 µM (inactive) in test [8]; 19.9 µM (inactive) in test [9]; 47.9 µM (inactive) in test [10]; 30.5 µM (inactive) in test [11]; 31.7 µM (inactive) in test [12]. Moreover, the GI50 was 86.1 µM (inactive) in test [13]; 29.2 µM (inactive) in [14]; 50 µM (inactive) in test [15]; 26.5 µM (inactive) in test [16]; 37.2 µM (inactive) in test [17]; 31.3 µM (inactive) in test [18]. Also, the GI50 in test [19] is 23.7 µM (inactive); in test [20] it was 46.1 µM (inactive).
In the case of `O=C(C(=O)n1ccc2ccccc21)n1ccc2ccccc21`, the GI50 is > 100 µM (inactive) in [1]; 2.12 µM (inactive) in [2]; 34 µM (inactive) in [3]; > 100 µM (inactive) in test [4]; 29 µM (inactive) in [5]; 38.7 µM (inactive) in [6]. The GI50 in [7] is more than 100 µM; in test [8], 10.7 µM (inactive); in test [9], > 100 µM (inactive); in test [10], 91.6 µM (inactive); in [11], > 100 µM (inactive); in test [12], > 100 µM (inactive). Further, the GI50 in [13] was > 100 µM (inactive); in test [14] it was > 100 µM (inactive); in test [15], > 100 µM (inactive); in test [16], 88.7 µM (inactive); in [17], > 100 µM (inactive); in test [19] it was 49.2 µM (inactive). In addition, the GI50 in test [20] was 63.4 µM (inactive).
Turning to `COc1cc2c(cc1OCCN1CCN(CCOc3cc4c(cc3OC)C(=O)N3CCC[C@H]3C=N4)CC1)N=C[C@@H]1CCCN1C2=O`, the GI50 was 35.8 µM (inactive) in test [1]; 33.5 µM (inactive) in [2]; 0.906 µM (active) in test [3]; 21.5 µM (inactive) in test [4]; > 100 µM (inactive) in [5]; more than 64.1 µM in [7]. Moreover, the GI50 in test [8] is > 76.9 µM (inactive); in [9] it was 25.4 µM (inactive); in test [10], 17.8 µM (inactive); in [11], 24 µM (inactive); in test [12] it was 20.8 µM (inactive); in test [13], 17.6 µM (inactive). Besides, the GI50 is 29.5 µM (inactive) in test [14]; 19.2 µM (inactive) in test [15]; 26.1 µM (inactive) in test [16]; > 100 µM (inactive) in test [17]; 30.8 µM (inactive) in [18]; 12.1 µM (inactive) in [19]. Besides, the GI50 in test [20] was 24.8 µM (inactive).
Regarding `C(=C\c1ccccc1)/C=N/c1ccc2c(c1)Cc1ccccc1-2`, the GI50 in test [1] was > 100 µM (inactive); in test [2], 61.5 µM (inactive); in test [3], > 100 µM (inactive); in test [4], 60.4 µM (inactive); in test [5], 63.8 µM (inactive); in test [6], 14.7 µM (inactive). For the same molecule, the GI50 in test [7] was more than 100 µM; in [8] it was 38.6 µM (inactive); in test [9], 76.7 µM (inactive); in [10] it was 54.2 µM (inactive); in test [12], 58.1 µM (inactive); in test [13], 65 µM (inactive). The GI50 in test [14] was 35.9 µM (inactive); in test [15], 69 µM (inactive); in [16], > 100 µM (inactive); in test [17] it was 51.3 µM (inactive); in [18] it was > 100 µM (inactive); in test [19] it was 36.8 µM (inactive). Further, the GI50 in test [20] was 18.7 µM (inactive).
Consider `Fc1cccc(F)c1C(Nc1nncs1)Nc1nncs1`, for which the GI50 in test [1] is > 100 µM (inactive); in test [2], > 100 µM (inactive); in test [3], > 100 µM (inactive); in test [4], > 100 µM (inactive); in [5], > 100 µM (inactive); in test [7], 91.2 µM. Besides, the GI50 is > 100 µM (inactive) in test [8]; > 100 µM (inactive) in [9]; > 100 µM (inactive) in test [10]; > 100 µM (inactive) in test [11]; 51.3 µM (inactive) in test [12]; > 100 µM (inactive) in [13]. Further, the GI50 is 50.5 µM (inactive) in [14]; 86.7 µM (inactive) in test [15]; > 100 µM (inactive) in [16]; > 100 µM (inactive) in test [17]; > 100 µM (inactive) in test [18]; > 100 µM (inactive) in test [19]. Further, in [20], the GI50 was > 100 µM (inactive).
For `COC(=O)C1=C(C)NC(CF)=C(C(=O)OC)C1c1cccc2c(=O)c3ccccc3oc12` (stereo not drawn), the GI50 in test [1] is 6.59 µM (inactive); in [2] it was 2.37 µM (inactive); in test [3] it was 3.88 µM (inactive); in test [4], 15.8 µM (inactive); in test [5], 10.2 µM (inactive); in test [6], 5.28 µM (inactive). Also, the GI50 was 4.79 µM in test [7]; 8.41 µM (inactive) in test [8]; 24.3 µM (inactive) in test [9]; 7.38 µM (inactive) in test [10]; 4.39 µM (inactive) in test [11]; 3.15 µM (inactive) in [12]. The GI50 in [13] was 4.74 µM (inactive); in [14], 5.2 µM (inactive); in test [15], 1.73 µM (inactive); in test [16], 11.7 µM (inactive); in [17] it was 2.79 µM (inactive); in test [18], 5.51 µM (inactive). In [19], the GI50 is 6.31 µM (inactive).
Turning to `COc1ccc(Cc2c(N)[nH]c(=O)n(C)c2=O)cc1`, the GI50 in test [1] was 5 µM (inactive); in test [2], > 100 µM (inactive); in test [3] it was 3.9 µM (inactive); in test [4] it was > 100 µM (inactive); in test [5], 89.7 µM (inactive); in test [7] it was 92.7 µM. Besides, the GI50 was 11.9 µM (inactive) in [8]; > 100 µM (inactive) in test [9]; > 100 µM (inactive) in test [10]; > 100 µM (inactive) in test [11]; > 100 µM (inactive) in test [12]; 92.7 µM (inactive) in test [13]. Moreover, the GI50 in test [14], in test [15], in [16], in test [17], in test [18] and in test [19] was > 100 µM (inactive) in each case. In addition, the GI50 in test [20] is > 100 µM (inactive).
As to `CCOC(=O)[C@@]1(C)CC(O)C(=O)N1C` (stereo partly drawn), the GI50 in test [1], in [2], in test [3], in test [4], in test [5] and in test [6] was > 100 µM (inactive) in each case. Further, the GI50 was more than 100 µM in [7]; > 100 µM (inactive) in test [9]; > 100 µM (inactive) in [10]; > 100 µM (inactive) in [11]; > 100 µM (inactive) in test [12]; > 100 µM (inactive) in test [13]. Moreover, the GI50 in [14], in test [15], in test [16], in test [17], in test [18] and in test [19] was > 100 µM (inactive) in each case. Besides, in test [20], the GI50 is > 100 µM (inactive).
